# Values of other authors in US20060234348A1, “Method of production of RNA polymerase protein” (priority 2005, published 2006).
# Target: T1, RNase A (Bos taurus, UniProt P61823)
# T1 sequence (P61823 27-150): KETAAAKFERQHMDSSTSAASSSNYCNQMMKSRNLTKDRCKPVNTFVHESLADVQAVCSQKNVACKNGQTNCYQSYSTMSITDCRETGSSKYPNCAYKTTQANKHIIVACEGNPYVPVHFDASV
# Details: RNase A 10 μg/ml, 4 mM DTT, 4° C. for 20 minutes
compound,measurement,value
"O[C@H](CS)[C@H](O)CS (racemic) [DTT, dithiothreitol]",conversion of polyribosomes to monoribosomes by RNase A,reduced the conversion of polyribosomes to monoribosomes
